Results on 14 compounds are retold here after PubChem BioAssay (NCI).

Some test systems named below: 786-0 renal; UO-31 renal; HL-60(TB) leukemia; TK-10 renal; COLO 205 colon; NCI-H522 lung; NCI-H460 lung; EKVX NSCLC; NCI-H226 lung; HOP-92 NSCLC.
What all share (assay): NCI tumour cell line growth inhibition, 48 h

Structures are written as SMILES. Where “and” joins values, the source holds several entries; their conditions need not be identical. Equal entries are not always repeated.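 Test compounds were applied to cells in 96-well plates for 48 hours at 5 doses. At the GI50, growth is halved. TGI: total growth inhibition.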 Bounds are passed on as bounds.

Take `O=[N+]([O-])C(=C1c2ccccc2-c2ccccc21)[N+](=O)[O-]`: the TGI in the test on 786-0 renal is greater than 100 µM; with UO-31 renal, greater than 100 µM; with HL-60(TB) leukemia, 98.9 µM; in the test on TK-10 renal, greater than 100 µM; in the test on COLO 205 colon it was greater than 100 µM; in the test on NCI-H522 lung it was greater than 100 µM. Moreover, the TGI with NCI-H460 lung, in the test with EKVX NSCLC and in the test on NCI-H226 lung was greater than 100 µM each time.

As for `CCOC(=O)N1C/C(=C\c2ccc(N(C)C)cc2)C(=O)/C(=C/c2ccc(N(C)C)cc2)C1`, the TGI in the test on 786-0 renal, in the test on UO-31 renal, in the test with HL-60(TB) leukemia, in the test with TK-10 renal, in the test on COLO 205 colon and in the test on NCI-H522 lung was greater than 100 µM each time. The TGI in the test with HOP-92 NSCLC, in the test on NCI-H460 lung and with EKVX NSCLC was greater than 100 µM each time.

In the case of `Cc1ncc2c(n1)CCC1=C2OS(=O)(=O)CC1N(C)C` (stereo not given), the TGI with 786-0 renal, with UO-31 renal, with HL-60(TB) leukemia, in the test with TK-10 renal, with COLO 205 colon and in the test on NCI-H522 lung was greater than 100 µM each time. The TGI in the test with NCI-H460 lung, in the test with EKVX NSCLC and in the test on NCI-H226 lung was greater than 100 µM in each case.

Regarding `COc1ccc(-c2cc(-c3ccco3)c(C#N)c(=O)n2C2OC(COC(C)=O)C(OC(C)=O)C(OC(C)=O)C2OC(C)=O)cc1` (stereo not given), the GI50 in the test with 786-0 renal was > 100 µM and 29.3 µM; in the test on UO-31 renal, 40.1 µM and 16.5 µM; in the test with NCI-H522 lung, 42.8 µM and 11 µM; with NCI-H460 lung, 35.8 µM and 8.76 µM. For the same compound, the TGI with 786-0 renal was greater than 100 µM; in the test on UO-31 renal, > 100 µM and 51.7 µM; in the test on TK-10 renal, > 100 µM and 78.4 µM; in the test with COLO 205 colon, greater than 100 µM; with NCI-H522 lung it was > 100 µM and 60.4 µM; in the test on HOP-92 NSCLC, > 100 µM and 62.7 µM. In addition, the TGI in the test with NCI-H460 lung is > 100 µM and 81 µM; in the test with EKVX NSCLC, greater than 100 µM.

In the case of `COC(=O)C(C(=O)C(=O)Nc1nc2ccc(OC)cc2s1)c1cnc2ccccc2n1` (stereo not given), the TGI in the test on 786-0 renal, in the test on UO-31 renal, in the test with TK-10 renal, in the test with COLO 205 colon, in the test with NCI-H522 lung and with HOP-92 NSCLC was greater than 100 µM each time. Also, the TGI in the test with NCI-H460 lung, in the test with EKVX NSCLC and in the test with NCI-H226 lung was greater than 100 µM throughout.

Take `COc1cc(C(C)c2cc3c(cc2OCCCCCOc2cc4c(cc2C(C)c2cc(OC)c(OC)c(OC)c2)OCO4)OCO3)cc(OC)c1OC` (stereo not given): the TGI with 786-0 renal, in the test with UO-31 renal, in the test with HL-60(TB) leukemia, in the test on NCI-H522 lung, in the test with NCI-H460 lung and in the test with EKVX NSCLC was greater than 100 µM throughout. The same compound returned a TGI in the test on NCI-H226 lung greater than 100 µM.

For the compound `O=S(=O)(c1ccccc1)C1(C2(S(=O)(=O)c3ccccc3)CCN=N2)CCN=N1` (stereo not given), the TGI with 786-0 renal, with UO-31 renal, with HL-60(TB) leukemia, in the test on TK-10 renal, with COLO 205 colon and with NCI-H522 lung was greater than 100 µM throughout. In addition, the TGI in the test on NCI-H460 lung, in the test on EKVX NSCLC and in the test on NCI-H226 lung was greater than 100 µM in each case.

As for `CN(C)c1ccc(-c2nc(N)nc3c2CCCC3)cc1`, the TGI was greater than 100 µM with 786-0 renal; greater than 100 µM in the test with UO-31 renal; greater than 100 µM in the test with HL-60(TB) leukemia; greater than 100 µM in the test with TK-10 renal; greater than 100 µM in the test on COLO 205 colon; 98.1 µM in the test on NCI-H522 lung. Besides, the TGI in the test with NCI-H460 lung was greater than 100 µM; in the test on EKVX NSCLC, 98.6 µM; with NCI-H226 lung, greater than 100 µM.

Regarding `COc1cc(Br)c(C=Nc2cccc3ccc(OS(=O)(=O)c4ccc([N+](=O)[O-])cc4)cc23)cc1OC`, the TGI in the test with 786-0 renal, in the test with UO-31 renal, in the test on COLO 205 colon, in the test on NCI-H522 lung, in the test on HOP-92 NSCLC and with NCI-H460 lung was greater than 100 µM in each case. The TGI with EKVX NSCLC and in the test on NCI-H226 lung was greater than 100 µM in each case.

As for `COc1ccc(C2=NC(CO)[C@H](c3ccccc3)O2)cc1OC` (stereo not given in full), the TGI in the test on 786-0 renal, in the test with UO-31 renal, with HL-60(TB) leukemia, in the test with COLO 205 colon, with NCI-H522 lung and with HOP-92 NSCLC was greater than 100 µM each time. For the same compound, the TGI in the test on NCI-H460 lung and with NCI-H226 lung was greater than 100 µM each time.

Take `Cc1c(C(=O)Nc2ccc(Oc3ccnc4cc(OCC(C)(C)O)ccc34)c(F)c2)c(=O)n(-c2ccccc2)n1C`: the GI50 in the test with 786-0 renal is 5.2 µM; with TK-10 renal it was 9.9 µM; in the test with COLO 205 colon, 2.81 µM; with NCI-H522 lung, 8.43 µM; in the test on HOP-92 NSCLC, 1.88 µM. The TGI is greater than 100 µM in the test on 786-0 renal; greater than 100 µM with TK-10 renal; greater than 100 µM with COLO 205 colon; greater than 100 µM in the test on NCI-H522 lung; 22.2 µM in the test with HOP-92 NSCLC.

In the case of `CN(C)Cc1nsc(N(C)C)n1`, the TGI in the test on 786-0 renal, in the test with UO-31 renal, in the test on TK-10 renal, with COLO 205 colon, in the test on NCI-H522 lung and in the test on HOP-92 NSCLC was greater than 100 µM throughout. The TGI in the test with NCI-H460 lung, with EKVX NSCLC and with NCI-H226 lung was greater than 100 µM in each case.

`CCOC(=O)C(c1ccsc1)P(=O)(OCC)OCC` (stereo not given): the TGI came out at 31.7 µM with 786-0 renal; 28.4 µM in the test with UO-31 renal; 41 µM with TK-10 renal; 26.7 µM with COLO 205 colon; 16.9 µM in the test on NCI-H522 lung; 46.4 µM in the test with HOP-92 NSCLC. Also, the TGI was 66.4 µM in the test with NCI-H460 lung, 80.1 µM in the test on EKVX NSCLC and 35.8 µM in the test with NCI-H226 lung.

`CCCCCCCCCCCCNC(=S)OCCCC`: the TGI with 786-0 renal was greater than 100 µM; in the test with UO-31 renal, greater than 100 µM; in the test with HL-60(TB) leukemia, 40.4 µM; in the test on TK-10 renal, greater than 100 µM; in the test with NCI-H522 lung, greater than 100 µM; in the test with HOP-92 NSCLC it was greater than 100 µM. Moreover, the TGI in the test on NCI-H460 lung and in the test with EKVX NSCLC was greater than 100 µM each time.
